Experimental data as given in article PMC9786614, “Nerve Targeting via Myelin Protein Zero and the Impact of Dimerization on Binding Affinity” (Molecules, 2022).
Entries after “also recorded” stand apart in the source; their conditions may differ. Like-named read-outs stand apart in the source and are kept apart here. Starred links: 1 amine or outer side, 2 acyl side, 3 side chain; linkers in the order of their positions; H or OH if unused. Positions of bridges follow the written chain, without caps; N, C: chain ends. Residues, ends and D or L forms follow the SMILES beside them. Chains are numbered I, II in the order given. *: point of attachment. X1 = CC1(C)C(/C=C/C=C/C=C2/N(CCCCCC(=O)NCCN3C(=O)CC([*:1])C3=O)c3ccc(S(=O)(=O)O)cc3C2(C)C)=[N+](CCCCCC(=O)NCCN2C(=O)CC([*:2])C2=O)c2ccc(S(=O)(=O)[O-])cc21; X2 = CC1(C)C(=C/C=C/C=C/C2=[N+](CCCCS(=O)(=O)O)c3ccc(S(=O)(=O)[O-])cc3C2(C)C)N(CCCCCC(=O)NCCN2C(=O)CC(*)C2=O)c2ccc(S(=O)(=O)O)cc21

Key:
serum protein = assay: Serum protein binding; assay type: in vitro ADME; conditions: serum; protocol modified from Hensbergen et al. [34]; mean ± spread
Experimental: (§1) The molar extinction coefficient (ε), quantum yield (QY), brightness, lipophilicity, serum protein binding, photo- and chemical stability, and stacking behavior were determined according to a slight modification of the protocol put forward by Hensbergen et al.. Sulfonate-(SO3)Cy5(SO3)-COOH [27] was measured and used as a control for QY.

RT4-D12 Schwannoma cells [1] = assay: Fluorescence confocal microscopy of P0 staining; assay type: cell-based; conditions: 1 h at 4 °C
Experimental: RT4-D12 Schwannoma cells were trypsinized and seeded onto 35 mm culture dishes that contained a glass insert (MatTek co, Emu Plains, New South Wales, Australia) two days prior to the imaging experiment. Then, 0.5–1000 nM Cy5-P0_101–125 or Cy5-(P0_101–125)2 was added one hour prior to imaging (incubation at 4 °C; n = 3 per tracer). Peptide solutions were sonicated for 20 s prior to addition to prevent aggregation of the peptide in solution. Lysotracker (lysotracker green; 2 µL/mL DND-26, Thermo Fisher, Waltham, MA, USA) and Hoechst (33,342, 1 mg/mL, 1:500, Thermo Fisher) were added to the to provide staining of lysosomes and the nucleus, respectively.
Images were acquired following Cy5 excitation at 633 nm. Emission was collected between 650–700 nm. For visualization of the lysosomes in the cells, a 488 nm laser was used for excitation, while emission was collected between 500–550 nm. Hoechst was excited at 405 nm, and emission was collected between 410–460 nm. Fluorescence confocal images were acquired using a Leica SP8 WL at sequential settings and 63× magnification. Image analysis was performed using Leica Confocal Software (Leica Microsystems). Semi-quantitative analysis of the Cy5 signal intensity was performed using the quantification tool in Fiji software according to previously described methods.

[2] = not given; remark: listed apart in the source
myelin protein zero (P0) = target: T1, myelin protein zero (P0) (Rattus norvegicus, UniProt P06907); assay: Saturation binding by flow cytometry on P0-expressing Schwannoma cells; conditions: for Nonspecific binding: saturation binding fit, RT4-D12 cells; for Nonspecific binding / Kd: flow cytometry; for Kd: saturation binding, RT4-D12 Schwannoma cells, 0–2000 nM tracer in 0.1% BSA in PBS, 1 h at 4 °C, triplicate, One site—Total fit
T1 construct: RT4-D12 Schwannoma cells were selected for in vitro experiments based on their origin and their specific P0-expressing properties; endogenous in cells; host or cells: RT4-D12 Schwannoma cells
T1 sequence (P06907 30-248): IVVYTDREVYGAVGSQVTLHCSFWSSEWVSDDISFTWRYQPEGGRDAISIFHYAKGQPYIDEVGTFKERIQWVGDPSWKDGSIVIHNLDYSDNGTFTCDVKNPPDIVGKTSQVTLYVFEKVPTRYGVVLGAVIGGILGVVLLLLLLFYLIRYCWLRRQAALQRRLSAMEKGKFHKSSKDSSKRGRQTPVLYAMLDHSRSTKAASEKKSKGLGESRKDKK
Experimental: RT4-D12 Schwannoma cells were selected for in vitro experiments based on their origin and their specific P0-expressing properties.
All chemicals were received from Actu-All Chemical (Oss, The Netherlands), Sigma Aldrich (St. Louis, MO, USA), Tokyo Chemical Industry (Tokyo, Japan), Biosolve BV (Valkenswaard, The Netherlands), VWR Chemicals (Solon, OH, USA) and used without further purification. DMF and DMSO were dried over four Å molecular sieves at least for 24 h prior to use. Preparative high-pressure liquid chromatography (prep-HPLC) was performed on a Waters HPLC system (Waters Chromatography B.V., Etten-Leur, The Netherlands) using a 2545 quaternary gradient module pump and a 2489 UV detector. Dr. Maisch ReproSil-Pur 120 C18-AQ 10 μM (250 mm × 20 mm) column (Dr. Maisch HPLC GmbH, Ammerbuch-Entringen, Germany) was applied operating flow rate of 12 mL/min. HPLC analysis was carried out on Waters Alliance 2690 using a Waters symmetry C18 column (2.1 × 150 mm) with a gradient of 0.1% TFA in H2O/MeCN 95:5 to 0.1% TFA in H2O/MeCN 5:95 in 17 min (0.3 mL/min). Mass spectrometry was performed on a Microflex LT/SH MALDI-TOF mass spectrometer (Bruker, Billerica, MA, USA). Lyophilization was performed with a VaCo 2-II lyophilizer (Zirbus technology GmbH, Bad Grund (Harz), Germany). Absorption spectrometry was performed using a UV1280 UV–vis spectrometer (Shimadzu, Kyoto, Japan), and fluorescence spectrometry was performed using an LS55 (Perkin Elmer, Waltham, MA, USA). The fluorescence spectra at different temperatures were measured on an Agilent Cary Eclipse (Agilent Cary Eclipse, Santa Clara, CA, USA). NMR spectra were measured on a Bruker Avance 300 (Bruker, Billerica, MA, USA) operating at 300 MHz for 1 H and 75.00 MHz for 13 C, using the residual solvents (CDCl3 and DMSO-d6) as internal references, and on a Bruker Advance III spectrometer operating at 600 MHz for 1H and equipped with a 2.5 mm PH SEI probe (Bruker, Billerica, MA, USA). For photostability, a prototype D-Light P surgical laparoscope (KARL STORZ, Tuttlingen, Germany) was used. Fluorescence confocal imaging was performed using a SP8 WLL confocal microscope (Leica Microsystems, Wetzlar, Germany). Obtained images were analyzed using Leica Confocal Software (Leica Microsystems). Mean fluorescence intensity values per sample were measured using a LSRII flow cytometer (BD Biosciences, Franklin Lakes, NJ, USA) with APC-A settings (635 nm laser and 750 nm long-pass filter). The binding constant (KD) of the normalized geometric means were fitted with equations in the Prism 5 software (GraphPad, San Diego, CA, USA). Statistical evaluation (Student’s t-test) for all properties was performed in the Prism 5 software. […]
Flow cytometric analysis was performed using RT4-D12 Schwannoma cells after incubation with either Cy5-P0_101–125 or Cy5-(P0_101–125)2. […] Cells were gated on Forward Scatter and Side Scatter, and a minimum of 10,000 viable cells were analyzed per sample. […]
(§2) For evaluation of the differences in signal intensity per concentration between Cy5-P0_101–125 and Cy5-(P0_101–125)2 (5–1000 nM), the mean signal intensity of Cy5-P0_101–125 at 1000nM was set at 100%, and intensities measured at other tracer concentrations or for Cy5-(P0_101–125)2 were calculated as % increase or decrease from this point. The KD values of the evaluated peptides were calculated using the “Binding-Saturation, One site—Total” nonlinear regression equation, as described previously.

[3] = not given; remark: listed apart in the source
[4] = not given; remark: listed apart in the source
[5] = not given; remark: listed apart in the source
[6] = Stacking behavior (absorbance spectra, dilution series); assay type: physicochemical; conditions: absorbance spectra in water, dilution series 8 μM to 0.5 μM, normalized
Experimental: as §1
To determine the stacking behavior of the mono- and bi-labeled compounds and their corresponding dyes, a dilution series of Cy5-(P0_101–125)2 and Cy5-P0_101–125 were made, consisting of the dye concentrations ranging from 8 μM to 0.5 μM.
Normalization of the data set for stacking behavior was performed using Equation (1):(1) x(normalized)=(x−xmin)/range of x where range of x= xmax−xmin .

[7] = Photostability (photobleaching); assay type: physicochemical; conditions: illumination in 5 min cycles, 30 min in total, Storz D-Light P system at 50 mm, fluorescence read-out
Experimental: as §1
For photostability measurements, the cuvettes were sealed and illuminated for 5 min (30 min in total) by a modified Storz D-Light P fluorescence imaging system at a distance of 50 mm in a dark environment. After each illumination cycle, the fluorescence intensity was determined.

RT4-D12 Schwannoma cells [8] = assay: Flow cytometry quantification of fluorescence signal intensity per tracer concentration; assay type: cell-based
Experimental: Flow cytometric analysis was performed using RT4-D12 Schwannoma cells after incubation with either Cy5-P0_101–125 or Cy5-(P0_101–125)2. For saturation binding experiments, Cy5-labelled peptides were added to the cell samples in a range of 0–2000 nM in 50 µL of 0.1% bovine serum albumin (BSA) in PBS, as previously described. After 1 h of incubation at 4 °C, the cells were washed two times with 300 µL of 0.1% BSA in PBS and re-suspended in 300 µL of 0.1% BSA. Cells were gated on Forward Scatter and Side Scatter, and a minimum of 10,000 viable cells were analyzed per sample. All experiments were performed in triplicate.
as §2

[9] = Stability towards glutathione; assay type: physicochemical
Experimental: For the stability towards glutathione, which is used as a measure of stability towards thiols and amines in vivo, 125 µL of a 2 mM solution of the compound in (0.1 M HEPES pH 7.4, pre-sparged with N2) was added to 125 µL of a 4 mM solution of reduced glutathione in 0.1M HEPES pH 7.4 (pre-sparged with N2). The solutions were mixed and then placed in a sample manager. A sample was analyzed at 37 degrees over 6 h in total to determine the amount of compound relative to t = 0.

Lipophilicity logP(o/w) = assay type: physicochemical; conditions: octanol/water; protocol modified from Hensbergen et al. [34]; mean ± spread
Experimental: as §1

[10] = free dye; previously reported; ref Spa et al. [27]; cited from earlier work
Text: Table 1 Chemo- and photophysical properties of mono-labeled Cy5-P0_101–125 and bi- labeled Cy5-(P0_101–125)2 and corresponding free cyanine dyes. | column: Sulfonate-(SO3)Cy5(SO3)-COOH *

Serum protein binding = assay type: in vitro ADME; conditions: protocol modified from Hensbergen et al. [34]; mean ± spread
Experimental: as §1

Row | Compound | λEm in H2O/PBS [nm] | fraction unbound (serum protein) | P0-related staining at 100 nM tracer (RT4-D12 Schwannoma cells [1]) | Brightness in PBS [2] [M⁻¹ cm⁻¹] | Nonspecific binding (myelin protein zero (P0)) | Kd (myelin protein zero (P0)) [nM] | stokes shift [3] [nm] | loss of fluorescence intensity with temperature increase [4] [%] | λex in H2O/PBS [5] [nm] | Photobleaching, % [7] [%] | also measured
1 | CC[C@H](C)[C@H](NC(=O)[C@H](CC(=O)O)NC(=O)[C@@H]1CCCN1C(=O)[C@@H]1CCCN1C(=O)[C@H](CC(N)=O)NC(=O)[C@H](CCCCN)NC(C)=O)C(=O)N[C@H](C(=O)NCC(=O)N[C@@H](CCCCN)C(=O)N[C@H](C(=O)N[C@@H](CO)C(=O)N[C@@H](CCC(N)=O)C(=O)N[C@H](C(=O)N[C@H](C(=O)N[C@@H](CC(C)C)C(=O)N[C@@H](Cc1ccc(O)cc1)C(=O)N[C@H](C(=O)N[C@@H](Cc1ccccc1)C(=O)N[C@@H](CCC(=O)O)C(=O)N[C@@H](CCCCN)C(=O)N[C@H](C(=O)N1CCC[C@H]1C(=O)N[C@H](C(=O)N[C@@H](CCCNC(=N)N)C(=O)N[C@@H](Cc1ccc(O)cc1)C(=O)N[C@@H](CSC1CC(=O)N(CCNC(=O)CCCCCN2C(=C/C=C/C=C/C3=[N+](CCCCS(=O)(=O)O)c4ccc(S(=O)(=O)[O-])cc4C3(C)C)C(C)(C)c3cc(S(=O)(=O)O)ccc32)C1=O)C(N)=O)[C@@H](C)O)C(C)C)C(C)C)[C@@H](C)O)C(C)C)[C@@H](C)O)C(C)C (stereo partly shown) [Cy5-P0_101–125] (Ac-KNPPDIVGKTSQVTLYVFEKVPTRYC(X2)-NH2) | 671 | 0.11 | Only a faint P0-related signal | 55.7 | 0.020 | 105 | 21 | 70 | 650 | 94 | stacking behavior (dye stacking / aggregation) [6]: higher “shoulder peak”; also recorded: typical “stacking shoulder” appears only for a mono-labeled Cy5-P0_101–125 at higher concentration
2 | I: Ac-KNPPDIVGKTSQVTLYVFEKVPTRYC-NH2 / II: Ac-KNPPDIVGKTSQVTLYVFEKVPTRYC-NH2 (linker I:26-II:26 via X1) [Cy5-(P0_101–125)2] | 671 | 0.37 | cells could be clearly discriminated | 49.2 | 0.022 | 70.3 | 17 | 65 | 654 | 71 | fold increase in staining efficiency compared to Cy5-P0_101–125 (RT4-D12 Schwannoma cells [8]; P0 expressing Schwannoma cells, equal staining at 4-fold lower concentration): ~4 fold; higher fluorescence signal intensity compared to Cy5-P0_101–125 at the same concentration, range (RT4-D12 Schwannoma cells [8]; flow cytometry, tracer 5–1000 nM, RT4-D12 cells): 34–59%; higher fluorescence signal intensity compared to Cy5-P0_101–125 at the same concentration, average (RT4-D12 Schwannoma cells [8]; flow cytometry, tracer 5–1000 nM, RT4-D12 cells, p < 0.00001): 44%; fold increase in affinity compared to Cy5-P0_101–125 (myelin protein zero (P0); from KD values, p = 0.003): 1.5 fold; remaining at 6 h, 1 mM ([9]; HEPES buffer with reduced glutathione, 2 mM compound mixed 1:1 with 4 mM reduced glutathione, 0.1 M HEPES pH 7.4 (N2 sparged), 37 degrees, amount relative to t = 0): 96%; degradation in glutathione stability test ([9]; reduced glutathione, 0.1 M HEPES pH 7.4, 37 degrees, 6 h): 4%; logP (Lipophilicity logP(o/w)): -0.57 ± 0.01
3 | Sulfonate-(SO3)Cy5(SO3)-COOH |  |  |  |  |  |  |  |  |  |  | Glutathione stability (at 6 h), % [10]: 95%; Net charge [10]: −2; Photobleaching, % [10]: 93%; Serum protein binding, % [10]: 49 ± 8%; logP(o/w) [10]: −1.42 ± 0.00
4 | COOH-(SO3)Cy5(SO3)-COOH [reference compound] |  |  |  |  |  |  |  |  |  | 95 | Serum protein binding, % (Serum protein binding): 70 ± 4%; Glutathione stability (at 6 h), % ([9]; 2 mM compound mixed 1:1 with 4 mM reduced glutathione, 0.1 M HEPES pH 7.4 (N2 sparged), 37 degrees, amount relative to t = 0): 95%; logP(o/w) (Lipophilicity logP(o/w)): −1.62 ± 0.01
